This passage reports Ki results from patent US8846719B2, “Isoxazolo-pyridine derivatives” (Roche Palo Alto LLC, priority 2007, dated 2014).

The structures appear in SMILES notation.

The target of this assay is human GABA A receptor α5β3γ2 (Homo sapiens (Human), UniProt P18507+P31644). As to the kind of experiment: [3H]flumazenil competition binding assay, human GABA A α5β3γ2 receptors expressed in HEK293 cells. The conditions noted are these: human receptor; displacement of [3H]flumazenil (0.5 nM); means of two determinations; read-out: hKi GABAAa5. In outline: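 Competition for [3H]flumazenil binding on membranes of HEK293 cells transiently transfected with human α5β3γ2 receptors, in Krebs-tris buffer pH 7.5.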
Background: Displacement assays read how much labelled ligand stays bound in the presence of the test substance.
Turning to `CC(C)(C)OC(=O)N1CC(NC(=O)c2ccc(OCc3conc3-c3ccc(Cl)cc3)nc2)C1` [Example 351, 3-({6-[3-(4-Chloro-phenyl)-isoxazol-4-ylmethoxy]-pyridine-3-carbonyl}-amino)-azetidine-1-carboxylic acid tert-butyl ester], the Ki came to 55.5 nM.

With `O=C(NC(CO)CO)c1ccc(OCc2conc2-c2ccc(Cl)cc2)nc1` [Example 353, 6-[3-(4-Chloro-phenyl)-isoxazol-4-ylmethoxy]-N-(2-hydroxy-1-hydroxymethyl-ethyl)-nicotinamide], the Ki stood at 5.5 nM.

In the case of `C[C@H](CO)NC(=O)c1ccc(OCc2conc2-c2ccc(Cl)cc2)nc1` [Example 354, 6-[3-(4-Chloro-phenyl)-isoxazol-4-ylmethoxy]-N—((R)-2-hydroxy-1-methyl-ethyl)-nicotinamide], the Ki worked out at 10.7 nM.

On to `C[C@@H](CO)NC(=O)c1ccc(OCc2conc2-c2ccc(Cl)cc2)nc1` [Example 355, 6-[3-(4-Chloro-phenyl)-isoxazol-4-ylmethoxy]-N—((S)-2-hydroxy-1-methyl-ethyl)-nicotinamide], for which the Ki worked out at 4.3 nM.

On to `CC(=O)NCCNC(=O)c1ccc(OCc2conc2-c2ccc(Cl)cc2)nc1` [Example 356, N-(2-Acetylamino-ethyl)-6-[3-(4-chloro-phenyl)-isoxazol-4-ylmethoxy]-nicotinamide], for which the Ki is 13.1 nM.

On to `C[C@H](NC(=O)c1ccc(OCc2conc2-c2ccc(Cl)cc2)nc1)C(F)(F)F` [Example 357, 6-[3-(4-Chloro-phenyl)-isoxazol-4-ylmethoxy]-N—((S)-2,2,2-trifluoro-1-methyl-ethyl)-nicotinamide], for which the Ki was about 20 nM.

Consider `O=C(NC1CCOCC1)c1ccc(OCc2conc2-c2ccccn2)nc1` [Example 358, 6-(3-Pyridin-2-yl-isoxazol-4-ylmethoxy)-N-(tetrahydro-pyran-4-yl)-nicotinamide], for which the Ki stood at 17.8 nM.

For the molecule `CC(C)NC(=O)c1ccc(OCc2conc2-c2ccccn2)nc1` [Example 359, N-Isopropyl-6-(3-pyridin-2-yl-isoxazol-4-ylmethoxy)-nicotinamide], the Ki was found to be 13.1 nM.

As for `O=C(NC1CC1)c1ccc(OCc2conc2-c2ccccn2)nc1` [Example 360, N-Cyclopropyl-6-(3-pyridin-2-yl-isoxazol-4-ylmethoxy)-nicotinamide], the Ki was found to be 18.9 nM.

Regarding `O=C(NCC1CC1)c1ccc(OCc2conc2-c2ccccn2)nc1` [Example 361, N-Cyclopropylmethyl-6-(3-pyridin-2-yl-isoxazol-4-ylmethoxy)-nicotinamide], the Ki was 19 nM.

Take `O=C(NCC(F)(F)F)c1ccc(OCc2conc2-c2ccccn2)nc1` [Example 362, 6-(3-Pyridin-2-yl-isoxazol-4-ylmethoxy)-N-(2,2,2-trifluoro-ethyl)-nicotinamide]: the Ki came out at 8 nM.

For `O=C(NCCO)c1ccc(OCc2conc2-c2ccccn2)nc1` [Example 363, N-(2-Hydroxy-ethyl)-6-(3-pyridin-2-yl-isoxazol-4-ylmethoxy)-nicotinamide], the Ki was 19.9 nM.

In the case of `CCNC(=O)c1ccc(OCc2conc2-c2ccccn2)nc1` [Example 364, N-Ethyl-6-(3-pyridin-2-yl-isoxazol-4-ylmethoxy)-nicotinamide], the Ki was 13.6 nM.

As to `O=C(NC1CCOCC1)c1ccc(OCc2conc2-c2ccc(F)cn2)nc1` [Example 365, 6-[3-(5-Fluoro-pyridin-2-yl)-isoxazol-4-ylmethoxy]-(tetrahydro-pyran-4-yl)-nicotinamide], the Ki worked out at 8 nM.

In the case of `CC(C)NC(=O)c1ccc(OCc2conc2-c2ccc(F)cn2)nc1` [Example 366, 6-[3-(5-Fluoro-pyridin-2-yl)-isoxazol-4-ylmethoxy]-isopropyl-nicotinamide], the Ki worked out at 6.8 nM.

As for `O=C(NC1CC1)c1ccc(OCc2conc2-c2ccc(F)cn2)nc1` [Example 367, Cyclopropyl-6-[3-(5-fluoro-pyridin-2-yl)-isoxazol-4-ylmethoxy]-nicotinamide], the Ki was determined as 13.5 nM.

Turning to `CC(C)(CO)NC(=O)c1ccc(OCc2conc2-c2ccc(F)cn2)nc1` [Example 368, 6-[3-(5-Fluoro-pyridin-2-yl)-isoxazol-4-ylmethoxy]-(2-hydroxy-1,1-dimethyl-ethyl)-nicotinamide], the Ki came out at 44.9 nM.

As for `O=C(NCC(F)(F)F)c1ccc(OCc2conc2-c2ccc(F)cn2)nc1` [Example 369, 6-[3-(5-Fluoro-pyridin-2-yl)-isoxazol-4-ylmethoxy]-(2,2,2-trifluoro-ethyl)-nicotinamide], the Ki amounted to 9.3 nM.

On to `O=C(NCCO)c1ccc(OCc2conc2-c2ccc(F)cn2)nc1` [Example 370, 6-[3-(5-Fluoro-pyridin-2-yl)-isoxazol-4-ylmethoxy]-(2-hydroxy-ethyl)-nicotinamide], for which the Ki was 21.4 nM.

Take `CCNC(=O)c1ccc(OCc2conc2-c2ccc(F)cn2)nc1` [Example 371, Ethyl-6-[3-(5-fluoro-pyridin-2-yl)-isoxazol-4-ylmethoxy]-nicotinamide]: the Ki amounted to 14.1 nM.

For `CNC(=O)c1ccc(OCc2conc2-c2ccc(F)cn2)nc1` [Example 372, 6-[3-(5-Fluoro-pyridin-2-yl)-isoxazol-4-ylmethoxy]-methyl-nicotinamide], the Ki was determined as 18.5 nM.
